Laboratory results: ChEMBL document CHEMBL1201862, “PubChem BioAssay data set” (2004)
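Tested at 5 concentrations; 48 h exposure; 96-well plates; endpoints linearly interpolated, else capped at highest concentration. GI50: concentration for 50% inhibition of growth.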 Calls of active or inactive are those of the source. Rule as the data show it: active = GI50 up to about 1.1 µM and inactive = higher.

How the values were obtained:
Assay in all cases: NCI anticancer screen, dose series, 48 h
T47D = tested on: T47D
SNB-19 = tested on: SNB-19
TK-10 = tested on: TK-10
UO-31 = tested on: UO-31
ACHN = tested on: ACHN
SN12C = tested on: SN12C
NCI-H23 = tested on: NCI-H23
U-251 = tested on: U-251
SNB-75 = tested on: SNB-75
HL-60 = tested on: HL-60
BT-549 = tested on: BT-549
CCRF-CEM = tested on: CCRF-CEM
HCC 2998 = tested on: HCC 2998
KM12 = tested on: KM12
MCF7 = tested on: MCF7
LOX IMVI = tested on: LOX IMVI
UACC-257 = tested on: UACC-257
NCI-H460 = tested on: NCI-H460
NCI/ADR-RES = tested on: NCI/ADR-RES
IGROV-1 = tested on: IGROV-1

Compound | GI50 (T47D) | GI50 (SNB-19) | GI50 (TK-10) | GI50 (UO-31) | GI50 (ACHN) | GI50 (SN12C) | GI50 (NCI-H23) | GI50 (U-251) | GI50 (SNB-75) | GI50 (HL-60) | GI50 (BT-549) | GI50 (CCRF-CEM) | GI50 (HCC 2998) | GI50 (KM12) | GI50 (MCF7) | GI50 (LOX IMVI) | GI50 (UACC-257) | GI50 (NCI-H460) | GI50 (NCI/ADR-RES) | GI50 (IGROV-1)
COc1ccc(C2CC(c3c(C)nn(-c4ccccc4)c3-c3ccc(C)cc3O)=NN2c2ccccc2)cc1 (configuration not stated) | 9.57 µM (inactive) | > 29 µM (inactive) | > 100 µM (inactive) | 24.7 µM (inactive) | 13.9 µM (inactive) | > 100 µM (inactive) | 3.79 µM (inactive) | 33.3 µM (inactive) | 5.04 µM (inactive) | 9.27 µM (inactive) | 55.3 µM (inactive) | 6.05 µM (inactive) | 12 µM (inactive) | 3.33 µM (inactive) | 8.07 µM (inactive) | > 30.1 µM (inactive) | 67.3 µM (inactive) | 3.42 µM (inactive) | 21.9 µM (inactive) | 49.3 µM (inactive)
Nc1ccc2c(c1)N(C(=O)c1cc3cc(NC(=O)c4cc5ccccc5o4)ccc3[nH]1)CC2CCl (configuration not stated) | 0.114 µM (active) | 0.277 µM (active) | 0.283 µM (active) | 0.0296 µM (active) | 0.0199 µM (active) | 0.215 µM (active) | 0.0211 µM (active) | 0.106 µM (active) | 0.153 µM (active) | 0.0416 µM (active) | 0.164 µM (active) | 0.0405 µM (active) | 0.0724 µM (active) | 0.115 µM (active) | 0.0221 µM (active) | 0.0398 µM (active) | 0.113 µM (active) | 0.0205 µM (active) | 0.0332 µM (active) | 0.108 µM (active)
C=C(C)[C@H]1C2=CC(C)=C(O2)[C@@H](O[C@@H]2c3oc(cc3C)[C@H](C(=C)C)[C@H]3C=C(CC[C@H]2C(=C)C)C(=O)O3)[C@H](C(=C)C)CCC2=C[C@H]1OC2=O | > 100 µM (inactive) | > 100 µM (inactive) | > 100 µM (inactive) | > 100 µM (inactive) | > 100 µM (inactive) | > 100 µM (inactive) | > 100 µM (inactive) | > 100 µM (inactive) | > 100 µM (inactive) | > 100 µM (inactive) | > 100 µM (inactive) | > 100 µM (inactive) | > 100 µM (inactive) | > 100 µM (inactive) | > 100 µM (inactive) | > 100 µM (inactive) | > 100 µM (inactive) | > 100 µM (inactive) | > 100 µM (inactive) | > 100 µM (inactive)
CCOC(=O)CC[C@H](N)C(=O)N[C@@H](Cc1ccc(N(CCCl)CCCl)cc1)C(=O)OCC | 0.718 µM (active) | 4.69 µM (inactive) | 1.47 µM (inactive) | 0.807 µM (active) | < 0.0348 µM (active) | 2.15 µM (inactive) | 0.278 µM (active) | 1.94 µM (inactive) | 1.22 µM (inactive) | 0.0705 µM (active) | 7.83 µM (inactive) | < 0.0308 µM (active) | 1.25 µM (inactive) | 4.61 µM (inactive) | 0.483 µM (active) | 0.184 µM (active) | 1.5 µM (inactive) | 0.0364 µM (active) | 1.52 µM (inactive) | 1.56 µM (inactive)
COc1cc([C@@H]2c3cc4c(cc3[C@@H](OC3OC5CO[C@@H](c6cccs6)OC5C(O)C3O)[C@H]3COC(=O)[C@H]23)OCO4)cc(OC)c1O (some centres not stated) | 0.162 µM (active) | 0.299 µM (active) | 1.75 µM (inactive) | 4.35 µM (inactive) | 0.173 µM (active) | 0.313 µM (active) | 0.406 µM (active) | 0.147 µM (active) | 0.502 µM (active) | 0.0521 µM (active) | 0.586 µM (active) | 0.046 µM (active) | 0.671 µM (active) | 0.753 µM (active) | 0.038 µM (active) | 0.206 µM (active) | 1.86 µM (inactive) | 0.0171 µM (active) | 23.4 µM (inactive) | 1.7 µM (inactive)
CC(=O)OCC1OC(N2C(c3ccccc3)=CC(c3ccco3)C(C#N)=C2S)C(OC(C)=O)C(OC(C)=O)C1OC(C)=O (configuration not stated) | 30.4 µM (inactive) | 11.9 µM (inactive) | 18.7 µM (inactive) | 9.23 µM (inactive) | 7.85 µM (inactive) | 4.22 µM (inactive) | 5.79 µM (inactive) | 2.54 µM (inactive) | 2.55 µM (inactive) | 10.4 µM (inactive) | 3.59 µM (inactive) | 12.6 µM (inactive) | 14.8 µM (inactive) | 15.3 µM (inactive) | 25.5 µM (inactive) | 5.74 µM (inactive) | > 32.1 µM (inactive) | 14.7 µM (inactive) | 4.78 µM (inactive) | 27.4 µM (inactive)
c1ccc2c(c1)c1c(c3ccccc32)CN2CCCC2C1 (configuration not stated) | 1.5 µM (inactive) | 2.66 µM (inactive) | 10.4 µM (inactive) | 2.77 µM (inactive) | 3.01 µM (inactive) | 2.7 µM (inactive) | 2.94 µM (inactive) | 3.4 µM (inactive) | 3.01 µM (inactive) | 1.41 µM (inactive) | 5.05 µM (inactive) | 2.99 µM (inactive) | 4.22 µM (inactive) | 4.2 µM (inactive) | 2.44 µM (inactive) | 3.35 µM (inactive) | 4.05 µM (inactive) | 3.03 µM (inactive) | 3.94 µM (inactive) | 2.7 µM (inactive)
COC(=O)C(=O)C(C(=O)OC)C(=O)C(=O)Nc1ccccc1C(N)=O (configuration not stated) | > 100 µM (inactive) | > 100 µM (inactive) | > 100 µM (inactive) | > 100 µM (inactive) | > 100 µM (inactive) | > 100 µM (inactive) | > 100 µM (inactive) | > 100 µM (inactive) | > 100 µM (inactive) | > 100 µM (inactive) | > 100 µM (inactive) | > 100 µM (inactive) | > 100 µM (inactive) | > 100 µM (inactive) | > 100 µM (inactive) | > 100 µM (inactive) | > 100 µM (inactive) | > 10 µM (inactive) | > 100 µM (inactive) | > 100 µM (inactive)
CCOC(=S)SC/C(=N\OC(C)(C)OC)c1ccccc1 | 20.7 µM (inactive) | > 100 µM (inactive) | 46.6 µM (inactive) | 31.2 µM (inactive) | 71.3 µM (inactive) | 89.7 µM (inactive) | 31.7 µM (inactive) | 41.9 µM (inactive) | 0.453 µM (active) | 20.2 µM (inactive) | 44 µM (inactive) | 18.1 µM (inactive) | 26.9 µM (inactive) | 31.9 µM (inactive) | 29.2 µM (inactive) | 16.3 µM (inactive) | 35.3 µM (inactive) | 35 µM (inactive) | > 100 µM (inactive) | 46.5 µM (inactive)
CC1CSC(=S)N1C(=O)N1C(=S)SCC1C (configuration not stated) | 28.6 µM (inactive) | 63.8 µM (inactive) | 27.8 µM (inactive) | 22.8 µM (inactive) | 18.5 µM (inactive) | 20.5 µM (inactive) | 20.3 µM (inactive) | 18.2 µM (inactive) | 23.4 µM (inactive) | 12.1 µM (inactive) | 24.7 µM (inactive) | 8.73 µM (inactive) | 36.6 µM (inactive) | 27.8 µM (inactive) | 21.2 µM (inactive) | 20.4 µM (inactive) | 19.3 µM (inactive) | 24.1 µM (inactive) | 19.1 µM (inactive) | 18.5 µM (inactive)
CCOP(=O)(OCC)C(C)(C)OC(=O)NC#N | > 100 µM (inactive) | > 100 µM (inactive) | > 100 µM (inactive) | > 100 µM (inactive) | > 100 µM (inactive) | > 100 µM (inactive) | > 100 µM (inactive) | > 100 µM (inactive) | > 100 µM (inactive) | > 100 µM (inactive) | 79.6 µM (inactive) | > 100 µM (inactive) | > 100 µM (inactive) | > 100 µM (inactive) | > 100 µM (inactive) | > 100 µM (inactive) | > 100 µM (inactive) | > 100 µM (inactive) | > 100 µM (inactive) | > 100 µM (inactive)
COc1ccc(/C=C2\N=C(N3CCOCC3)NC2=O)cc1 | > 100 µM (inactive) | > 100 µM (inactive) | > 100 µM (inactive) | > 100 µM (inactive) | > 100 µM (inactive) | > 100 µM (inactive) | > 100 µM (inactive) | > 100 µM (inactive) | 58.3 µM (inactive) | > 100 µM (inactive) | > 100 µM (inactive) | > 100 µM (inactive) | > 100 µM (inactive) | > 100 µM (inactive) | > 100 µM (inactive) | > 100 µM (inactive) | > 100 µM (inactive) |  | > 100 µM (inactive) | > 100 µM (inactive)
COC(=O)Oc1nn(C(=O)OC)c(=O)c2ccccc12 | 74.5 µM (inactive) | > 100 µM (inactive) | > 100 µM (inactive) | > 100 µM (inactive) | > 100 µM (inactive) | > 100 µM (inactive) | > 100 µM (inactive) | > 100 µM (inactive) | 54.5 µM (inactive) | > 100 µM (inactive) | > 100 µM (inactive) | > 100 µM (inactive) | 59.8 µM (inactive) | > 100 µM (inactive) | > 100 µM (inactive) | > 100 µM (inactive) | > 100 µM (inactive) |  | > 100 µM (inactive) | > 100 µM (inactive)
CC(C)=C[C@H]1C[C@H](C)[C@H]2CC[C@H](C)c3c2c1c(C)c1ncoc31 | 17.8 µM (inactive) | 14.6 µM (inactive) | 17.4 µM (inactive) | 17.6 µM (inactive) | 18.1 µM (inactive) | 19.5 µM (inactive) |  | 16.8 µM (inactive) | 18.8 µM (inactive) | 11.5 µM (inactive) | 21.1 µM (inactive) | 17.7 µM (inactive) | 20 µM (inactive) | 17.7 µM (inactive) | 15 µM (inactive) | 20.1 µM (inactive) | 18.4 µM (inactive) | 18.4 µM (inactive) | 17 µM (inactive) | 13.9 µM (inactive)
